From publication PMC6218249 (Bioorganic & medicinal chemistry letters, 2018)
Converted amounts (≈) assume the structure as drawn.

Tests used:
[1] = In vivo pharmacokinetics in C57BL/6 mice; conditions: C57BL/6, mouse, plasma, other: intravenous and oral, 3 mg/kg
physchem = conditions: pH 7.4

half-life [1] | solubility (physchem) | SMILES | PAMPA (x10^−6 cm/s) (PAMPA permeability)
– | – | NS(=O)(=O)c1ccc(-c2cnn3cc(-c4ccc(C5CCNCC5)cc4)cnc23)c2ccccc12 [Compound 15] | 78.6 x10^−6 cm/s
– | – | NS(=O)(=O)c1ccc(-c2cnn3cc(-c4ccc(N5CCNCC5)nc4)cnc23)c2ccccc12 [Compound 12] | 8.3 x10^−6 cm/s
– | – | NS(=O)(=O)c1ccc(-c2cnn3cc(-c4ccc(CN5CCCC5)cc4)cnc23)c2ccccc12 [Compound 22] | 467 x10^−6 cm/s
– | – | CC(C)(N)c1ccc(-c2cnc3c(-c4ccc(S(N)(=O)=O)c5ccccc45)cnn3c2)cc1 [Compound 20] | 9.4 x10^−6 cm/s
3 to 4 h | 14 µM (≈ 6.97 µg/mL) | CC(c1ccc(-c2cnc3c(-c4ccc(S(N)(=O)=O)c5ccccc45)cnn3c2)cc1)N1CCCC1 (centres unmarked) [Compound 23] | 1116.0 x10^−6 cm/s
– | – | CC(C)(CN1CCCCC1)Oc1ccc(-c2cnc3c(-c4ccc(S(N)(=O)=O)c5ccccc45)cnn3c2)cc1 [Compound 17] | 1920.5 x10^−6 cm/s
– | – | NS(=O)(=O)c1ccc(-c2cnn3cc(-c4ccc(OCCN5CCCC5)cc4)cnc23)c2ccccc12 [Compound 18] | 317 x10^−6 cm/s
– | – | CN(C)CCOc1ccc(-c2cnc3c(-c4ccc(S(N)(=O)=O)c5ccccc45)cnn3c2)cn1 [Compound 13] | 8.8 x10^−6 cm/s
– | – | NS(=O)(=O)c1ccc(-c2cnn3cc(-c4ccc(OCCN5CCCCC5)nc4)cnc23)c2ccccc12 [Compound 14] | 364.7 x10^−6 cm/s
